Target: T1, Kv1.3 potassium channel (Homo sapiens, UniProt P22001)
T1 construct: expressed in transfected cells
Assay: Kv1.3 potassium channel blocker activity, automated whole-cell patch clamp (Patchliner) in CHO-K1 cells stably expressing Kv1.3
Type: cell-based
Settings: 30 nM-100 μM
Description: This assay is used to evaluate the disclosed compounds' activities as Kv1.3 potassium channel blockers.
CHO-K1 cells stably expressing Kv1.3 were grown in DMEM containing 10% heat-inactivated FBS, 1 mM sodium pyruvate, 2 mM L-glutamine, and G418 (500 μg/ml). Cells were grown in culture flasks at 37° C. in a 5% CO2-humidified incubator.
The cells were bathed in an extracellular solution containing 140 mM NaCl, 4 mM KCl, 2 mM CaCl2), 1 mM MgCl2, 5 mM glucose, 10 mM HEPES; pH adjusted to 7.4 with NaOH; 295-305 mOsm. The internal solution contained 50 mM KCl, 10 mM NaCl, 60 mM KF, 20 mM EGTA, 10 mM HEPES; pH adjusted to 7.2 with KOH; 285 mOsm. All compounds were dissolved in DMSO at 30 mM. Compound stock solutions were freshly diluted with external solution to concentrations of 30 nM, 100 nM, 300 nM, 1 μM, 3 μM, 10 μM, 30 μM and 100 μM. The highest content of DMSO (0.3%) was present in 100 μM.
The currents were evoked by applying 100 ms depolarizing pulses from −90 mV (holding potential) to +40 mV were applied with 0.1 Hz frequency. Control (compound-free) and compound pulse trains for each compound concentration applied contained 20 pulses. 10-second breaks were used between pulse trains (see Table A below).
Whole-cell current recordings and compound application were enabled by means of an automated patch clamp platform Patchliner (Nanion Technologies GmbH). EPC 10 patch clamp amplifier (HEKA Elektronik Dr. Schulze GmbH) along with Patchmaster software (HEKA Elektronik Dr. Schulze GmbH) was used for data acquisition. Data were sampled at 10 kHz without filtering. Passive leak currents were subtracted online using a P/4 procedure (HEKA Elektronik Dr. Schulze GmbH). Increasing compound concentrations were applied consecutively to the same cell without washouts in between. Total compound incubation time before the next pulse train was not longer than 10 seconds. Peak current inhibition was observed during compound equilibration.
AUC and peak values were obtained with Patchmaster (HEKA Elektronik Dr. Schulze GmbH). To determine IC50, the last single pulse in the pulse train corresponding to a given compound concentration was used. Obtained AUC and peak values in the presence of compound were normalized to control values in the absence of compound. Using Origin (OridinLab), IC50 was derived from data fit to Hill equation: Icompound/Icontrol=(100−A)/(1+([compound]/IC50)nH)+A, where IC50 value is the concentration at which current inhibition is half-maximal, [compound] is the applied compound concentration, A is the fraction of current that is not blocked and nH is the Hill coefficient.

T1 sequence (P22001 whole entry): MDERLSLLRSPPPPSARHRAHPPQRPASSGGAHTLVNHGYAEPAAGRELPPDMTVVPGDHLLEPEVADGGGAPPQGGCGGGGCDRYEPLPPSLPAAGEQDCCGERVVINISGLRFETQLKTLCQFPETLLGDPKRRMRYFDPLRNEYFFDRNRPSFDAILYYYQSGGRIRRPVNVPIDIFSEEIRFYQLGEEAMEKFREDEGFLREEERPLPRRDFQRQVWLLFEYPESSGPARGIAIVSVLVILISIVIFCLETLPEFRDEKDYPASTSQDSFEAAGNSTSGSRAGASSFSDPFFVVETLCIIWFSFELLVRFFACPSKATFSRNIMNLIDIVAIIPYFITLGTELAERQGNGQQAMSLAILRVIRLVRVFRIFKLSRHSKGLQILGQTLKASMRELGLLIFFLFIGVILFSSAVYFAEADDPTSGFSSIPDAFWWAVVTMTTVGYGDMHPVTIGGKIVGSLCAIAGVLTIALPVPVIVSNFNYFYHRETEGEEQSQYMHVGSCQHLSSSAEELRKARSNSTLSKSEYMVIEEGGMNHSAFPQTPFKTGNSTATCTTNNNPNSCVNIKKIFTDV

SMILES	IC50
O=C1Nc2cc(Cl)c(Cl)cc2[C@]12CCN(c1ccn[nH]1)C2 (single isomer, unassigned) [Compound 153]	< 3 µM
NC(=O)N1CC[C@@]2(C1)C(=O)Nc1cc(Cl)c(Cl)cc12 (single isomer, unassigned) [Compound 155]	< 3 µM
C[C@@H]1CN(C(=O)CO)CC12C(=O)Nc1cc(Cl)c(Cl)cc12 (single isomer, unassigned; diastereoisomer 1) [Compound 130, 5,6-dichloro-1′-(2-hydroxyacetyl)-4′-methylspiro[indoline-3,3′-pyrrolidin]-2-one diastereoisomer 1]	< 30 µM
C[C@@H]1N(C(=O)CO)CCC12C(=O)Nc1cc(Cl)c(Cl)cc12 (single isomer, unassigned; diastereoisomer 1) [Compound 133, 5,6-dichloro-1′-(2-hydroxyacetyl)-2′-methylspiro[indoline-3,3′-pyrrolidin]-2-one diastereoisomer 1]	< 3 µM
C[C@H]1N(C(=O)CO)CCC12C(=O)Nc1cc(Cl)c(Cl)cc12 (single isomer, unassigned; diastereoisomer 2) [Compound 134, 5,6-dichloro-1′-(2-hydroxyacetyl)-2′-methylspiro[indoline-3,3′-pyrrolidin]-2-one diastereoisomer 2]	< 10 µM
O=C([C@H]1[C@@H]2CN[C@H]1C2)N1CC[C@]2(C1)C(=O)Nc1cc(Cl)c(Cl)cc12 (single isomer, unassigned; isomer 1) [Compound 57]	< 3 µM
C[C@H]1C[C@]2(CN1C(=O)CO)C(=O)Nc1cc(Cl)c(Cl)cc12 (single isomer, unassigned; isomer 1) [Compound 123, 5,6-dichloro-1′-(2-hydroxyacetyl)-5′-methyl-1H-spiro[indole-3,3′-pyrrolidin]-2-one isomer 1]	< 30 µM
O=C(N1CC[C@]2(C1)C(=O)Nc1cc(Cl)c(Cl)cc12)[C@@]1(O)CCNC1 (single isomer, unassigned; isomer 2) [Compound 31]	< 3 µM
O=C([C@@H]1CC[C@@H](O)C1)N1CC[C@]2(C1)C(=O)Nc1cc(Cl)c(Cl)cc12 (single isomer, unassigned; isomer 2) [Compound 64]	< 3 µM
O=C1CC(C(=O)N2CC[C@]3(C2)C(=O)Nc2cc(Cl)c(Cl)cc23)CN1 (single isomer, unassigned; isomer 2) [Compound 75]	< 3 µM
O=C([C@@H]1CC[C@@](O)(CO)C1)N1CC[C@]2(C1)C(=O)Nc1cc(Cl)c(Cl)cc12 (single isomer, unassigned; isomer 2) [Compound 96]	< 3 µM
O=C([C@@H]1CC[C@](O)(CO)C1)N1CC[C@]2(C1)C(=O)Nc1cc(Cl)c(Cl)cc12 (single isomer, unassigned; isomer 2) [Compound 98]	< 3 µM
O=C([C@@H]1CC[C@@H](CO)C1)N1CC[C@]2(C1)C(=O)Nc1cc(Cl)c(Cl)cc12 (single isomer, unassigned; isomer 2) [Compound 100]	< 3 µM
O=C([C@H]1CC[C@H](O)[C@@H](O)C1)N1CC[C@]2(C1)C(=O)Nc1cc(Cl)c(Cl)cc12 (single isomer, unassigned; isomer 2) [Compound 108]	< 3 µM
C[C@@H]1C[C@@]2(CN1C(=O)CO)C(=O)Nc1cc(Cl)c(Cl)cc12 (single isomer, unassigned; isomer 2) [Compound 124, 5,6-dichloro-1′-(2-hydroxyacetyl)-5′-methyl-1H-spiro[indole-3,3′-pyrrolidin]-2-one isomer 2]	< 10 µM
O=C([C@H]1CC[C@@H](O)C1)N1CC[C@]2(C1)C(=O)Nc1cc(Cl)c(Cl)cc12 (single isomer, unassigned; isomer 3) [Compound 65]	< 3 µM
O=C([C@@H]1CC[C@H](O)C1)N1CC[C@]2(C1)C(=O)Nc1cc(Cl)c(Cl)cc12 (single isomer, unassigned; isomer 4) [Compound 66]	< 3 µM
C[C@H]1C[C@@]2(CN1C(=O)CO)C(=O)Nc1cc(Cl)c(Cl)cc12 (single isomer, unassigned; isomer 4) [Compound 126, 5,6-dichloro-1′-(2-hydroxyacetyl)-5′-methyl-1H-spiro[indole-3,3′-pyrrolidin]-2-one isomer 4]	< 10 µM
CN(C)CC(=O)N1CCC2(C1)C(=O)Nc1cc(Cl)c(Cl)cc12 (stereo not drawn) [Compound 7, 5,6-dichloro-1′-(dimethylglycyl)spiro[indoline-3,3′-pyrrolidin]-2-one]	< 3 µM

The next lines start with the values.

IC50	SMILES
< 3 µM	O=C([C@H]1CC[C@H](CO)C1)N1CC[C@]2(C1)C(=O)Nc1cc(Cl)c(Cl)cc12 (relative stereo) [Compound 99, (3S)-5,6-dichloro-1′-[(1R,3R)-rel-3-(hydroxymethyl)cyclopentanecarbonyl]-1H-spiro[indole-3,3′-pyrrolidin]-2-one isomer 1]
< 1 µM	O=C(C1C[C@H](O)[C@@H](O)C1)N1CC[C@]2(C1)C(=O)Nc1cc(Cl)c(Cl)cc12 (relative stereo) [Compound 106]
< 1 µM	O=C([C@@H]1C[C@H]1CO)N1CC[C@]2(C1)C(=O)Nc1cc(Cl)c(Cl)cc12 (relative stereo) [Compound 150, (S)-5,6-dichloro-1′-(1R,2R)-rel-2-(hydroxymethyl)cyclopropane-1-carbonyl)spiro[indoline-3,3′-pyrrolidin]-2-one]
< 1 µM	O=C([C@@H]1C[C@@H]1CO)N1CC[C@]2(C1)C(=O)Nc1cc(Cl)c(Cl)cc12 (relative stereo) [Compound 151, (S)-5,6-dichloro-1′-(1R,2S)-rel-2-(hydroxymethyl)cyclopropane-1-carbonyl)spiro[indoline-3,3′-pyrrolidin]-2-one]
< 1 µM	O=C([C@@H]1CNC[C@@H]1O)N1CC[C@]2(C1)C(=O)Nc1cc(Cl)c(Cl)cc12 (single isomer, unassigned) [Compound 1]
< 1 µM	O=C([C@H]1CNC[C@@H]1O)N1CC[C@]2(C1)C(=O)Nc1cc(Cl)c(Cl)cc12 (single isomer, unassigned) [Compound 4]
< 1 µM	NC(=O)N1CC[C@]2(C1)C(=O)Nc1cc(Cl)c(Cl)cc12 (single isomer, unassigned) [Compound 154]
< 1 µM	C[C@H]1CN(C(=O)CO)CC12C(=O)Nc1cc(Cl)c(Cl)cc12 (single isomer, unassigned; diastereoisomer 2) [Compound 131, 5,6-dichloro-1′-(2-hydroxyacetyl)-4′-methylspiro[indoline-3,3′-pyrrolidin]-2-one diastereoisomer 2]
< 1 µM	O=C(N1CC[C@]2(C1)C(=O)Nc1cc(Cl)c(Cl)cc12)[C@]1(F)CCNC1 (single isomer, unassigned; isomer 1) [Compound 28]
< 1 µM	O=C(N1CC[C@]2(C1)C(=O)Nc1cc(Cl)c(Cl)cc12)C1(O)CCNC1 (single isomer, unassigned; isomer 1) [Compound 30]
< 1 µM	O=C1Nc2cc(Cl)c(Cl)cc2[C@]12CCN(C(=O)[C@]13CNCC1C3)C2 (single isomer, unassigned; isomer 1) [Compound 32]
< 1 µM	O=C1C[C@H](C(=O)N2CC[C@]3(C2)C(=O)Nc2cc(Cl)c(Cl)cc23)CN1 (single isomer, unassigned; isomer 1) [Compound 74]
< 1 µM	O=C([C@@H]1CC[C@H](O)[C@@H](O)C1)N1CC[C@]2(C1)C(=O)Nc1cc(Cl)c(Cl)cc12 (single isomer, unassigned; isomer 1) [Compound 103]
< 1 µM	O=C([C@H]1CC[C@@H](O)[C@H](O)C1)N1CC[C@]2(C1)C(=O)Nc1cc(Cl)c(Cl)cc12 (single isomer, unassigned; isomer 1) [Compound 107]
< 1 µM	O=C(N1CC[C@]2(C1)C(=O)Nc1cc(Cl)c(Cl)cc12)C12CNCC1C2 (single isomer, unassigned; isomer 2) [Compound 33]
< 1 µM	O=C([C@@H]1[C@@H]2CN[C@H]1C2)N1CC[C@]2(C1)C(=O)Nc1cc(Cl)c(Cl)cc12 (single isomer, unassigned; isomer 2) [Compound 58]
< 1 µM	C[C@@H]1C[C@]2(CN1C(=O)CO)C(=O)Nc1cc(Cl)c(Cl)cc12 (single isomer, unassigned; isomer 3) [Compound 125, 5,6-dichloro-1′-(2-hydroxyacetyl)-5′-methyl-1H-spiro[indole-3,3′-pyrrolidin]-2-one isomer 3]
